Experimental data: PubChem BioAssay AID1259407 (Chemical Carcinogenesis Research Information System (CCRIS), 2018)
The source made the active and inactive calls. No rule for the calls is given here.

Tested on: CCRIS mutagenicity, Ames/micronucleus/aberration tests
Assay: CCRIS mutagenicity studies
[1] = Test System: AMES SALMONELLA TYPHIMURIUM, Strain/Indicator: TA98, Metabolic Activation: NONE, Method: STANDARD PLATE
[2] = Test System: AMES SALMONELLA TYPHIMURIUM, Strain/Indicator: TA100, Metabolic Activation: NONE, Method: STANDARD PLATE
[3] = Test System: AMES SALMONELLA TYPHIMURIUM, Strain/Indicator: TA97, Metabolic Activation: NONE, Method: STANDARD PLATE

SMILES: C=C1C[C@@]23CC[C@H]4[C@@](C)(CCC[C@@]4(C)C(=O)O)[C@@H]2CC[C@@H]1C3
- mutagenic call (Test System: AMES SALMONELLA TYPHIMURIUM, Strain/Indicator: TM677, Metabolic Activation: RAT, LIVER, S-9, AROCLOR 1254, Method: PREINCUBATION): inactive; negative

SMILES: O=[N+]([O-])c1c(Cl)cc2c(c1Cl)Oc1cc(Cl)c(Cl)cc1O2
- mutagenic call [1]: inactive; negative
- mutagenic call (Test System: AMES SALMONELLA TYPHIMURIUM, Strain/Indicator: TA98, Metabolic Activation: RAT, LIVER, S-9, AROCLOR, Method: STANDARD PLATE): inactive; negative
- mutagenic call [2]: inactive; negative
- mutagenic call (Test System: AMES SALMONELLA TYPHIMURIUM, Strain/Indicator: TA100, Metabolic Activation: RAT, LIVER, S-9, AROCLOR, Method: STANDARD PLATE): inactive; negative

SMILES: CCCCOC(=O)CCCCCCCCC(=O)OCCCC
- mutagenic call [3]: inactive; negative
- mutagenic call (Test System: AMES SALMONELLA TYPHIMURIUM, Strain/Indicator: TA97, Metabolic Activation: S-9, Method: STANDARD PLATE): inactive; negative
- mutagenic call [1]: inactive; negative
- mutagenic call (Test System: AMES SALMONELLA TYPHIMURIUM, Strain/Indicator: TA98, Metabolic Activation: S-9, Method: STANDARD PLATE): inactive; negative
- mutagenic call [2]: inactive; negative
- mutagenic call (Test System: AMES SALMONELLA TYPHIMURIUM, Strain/Indicator: TA100, Metabolic Activation: S-9, Method: STANDARD PLATE): inactive; negative
- mutagenic call (Test System: AMES SALMONELLA TYPHIMURIUM, Strain/Indicator: TA102, Metabolic Activation: NONE, Method: STANDARD PLATE): inactive; negative
- mutagenic call (Test System: AMES SALMONELLA TYPHIMURIUM, Strain/Indicator: TA102, Metabolic Activation: S-9, Method: STANDARD PLATE): inactive; negative
- mutagenic call (Test System: E.COLI, Strain/Indicator: WP2 (PKM101), Metabolic Activation: NONE, Method: STANDARD PLATE): inactive; negative
- mutagenic call (Test System: E.COLI, Strain/Indicator: WP2 (PKM101), Metabolic Activation: S-9, Method: STANDARD PLATE): inactive; negative

SMILES: O=C1c2ccccc2C(=O)C1c1ccc2ccccc2n1
- mutagenic call (Test System: AMES SALMONELLA TYPHIMURIUM, Strain/Indicator: TA97, Metabolic Activation: HAMSTER, LIVER, S-9, AROCLOR 1254 (10%), Method: PREINCUBATION): inactive; negative
- mutagenic call (Test System: AMES SALMONELLA TYPHIMURIUM, Strain/Indicator: TA97, Metabolic Activation: HAMSTER, LIVER, S-9, AROCLOR 1254 (30%), Method: PREINCUBATION): inactive; negative
- mutagenic call (Test System: AMES SALMONELLA TYPHIMURIUM, Strain/Indicator: TA97, Metabolic Activation: NONE, Method: PREINCUBATION): inactive; negative
- mutagenic call (Test System: AMES SALMONELLA TYPHIMURIUM, Strain/Indicator: TA97, Metabolic Activation: RAT, LIVER, S-9, AROCLOR 1254 (10%), Method: PREINCUBATION): inactive; negative
- mutagenic call (Test System: AMES SALMONELLA TYPHIMURIUM, Strain/Indicator: TA97, Metabolic Activation: RAT, LIVER, S-9, AROCLOR 1254 (30%), Method: PREINCUBATION): inactive; negative
- mutagenic call (Test System: AMES SALMONELLA TYPHIMURIUM, Strain/Indicator: TA98, Metabolic Activation: HAMSTER, LIVER, S-9, AROCLOR 1254 (5%), Method: PREINCUBATION): inactive; negative
- mutagenic call (Test System: AMES SALMONELLA TYPHIMURIUM, Strain/Indicator: TA98, Metabolic Activation: HAMSTER, LIVER, S-9, AROCLOR 1254 (10%), Method: PREINCUBATION): inactive; negative
- mutagenic call (Test System: AMES SALMONELLA TYPHIMURIUM, Strain/Indicator: TA98, Metabolic Activation: HAMSTER, LIVER, S-9, AROCLOR 1254 (30%), Method: PREINCUBATION): inactive; negative
- mutagenic call (Test System: AMES SALMONELLA TYPHIMURIUM, Strain/Indicator: TA98, Metabolic Activation: NONE, Method: PREINCUBATION): inactive; negative
- mutagenic call (Test System: AMES SALMONELLA TYPHIMURIUM, Strain/Indicator: TA98, Metabolic Activation: RAT, LIVER, S-9, AROCLOR 1254 (5%), Method: PREINCUBATION): inactive; negative
- mutagenic call (Test System: AMES SALMONELLA TYPHIMURIUM, Strain/Indicator: TA98, Metabolic Activation: RAT, LIVER, S-9, AROCLOR 1254 (10%), Method: PREINCUBATION): inactive; negative
- mutagenic call (Test System: AMES SALMONELLA TYPHIMURIUM, Strain/Indicator: TA98, Metabolic Activation: RAT, LIVER, S-9, AROCLOR 1254 (30%), Method: PREINCUBATION): active; positive
- mutagenic call (Test System: AMES SALMONELLA TYPHIMURIUM, Strain/Indicator: TA100, Metabolic Activation: HAMSTER, LIVER, S-9, AROCLOR 1254 (10%), Method: PREINCUBATION): inactive; negative
- mutagenic call (Test System: AMES SALMONELLA TYPHIMURIUM, Strain/Indicator: TA100, Metabolic Activation: HAMSTER, LIVER, S-9, AROCLOR 1254 (30%), Method: PREINCUBATION): active; positive
- mutagenic call (Test System: AMES SALMONELLA TYPHIMURIUM, Strain/Indicator: TA100, Metabolic Activation: NONE, Method: PREINCUBATION): inactive; negative
- mutagenic call (Test System: AMES SALMONELLA TYPHIMURIUM, Strain/Indicator: TA100, Metabolic Activation: RAT, LIVER, S-9, AROCLOR 1254 (5 OR 10%), Method: PREINCUBATION): inactive; negative
- mutagenic call (Test System: AMES SALMONELLA TYPHIMURIUM, Strain/Indicator: TA100, Metabolic Activation: RAT, LIVER, S-9, AROCLOR 1254 (30%), Method: PREINCUBATION): active; positive
- mutagenic call (Test System: AMES SALMONELLA TYPHIMURIUM, Strain/Indicator: TA1535, Metabolic Activation: HAMSTER, LIVER, S-9, AROCLOR 1254 (10%), Method: PREINCUBATION): inactive; negative
- mutagenic call (Test System: AMES SALMONELLA TYPHIMURIUM, Strain/Indicator: TA1535, Metabolic Activation: HAMSTER, LIVER, S-9, AROCLOR 1254 (30%), Method: PREINCUBATION): inactive; negative
- mutagenic call (Test System: AMES SALMONELLA TYPHIMURIUM, Strain/Indicator: TA1535, Metabolic Activation: NONE, Method: PREINCUBATION): inactive; negative
- mutagenic call (Test System: AMES SALMONELLA TYPHIMURIUM, Strain/Indicator: TA1535, Metabolic Activation: RAT, LIVER, S-9, AROCLOR 1254 (10%), Method: PREINCUBATION): inactive; negative
- mutagenic call (Test System: AMES SALMONELLA TYPHIMURIUM, Strain/Indicator: TA1535, Metabolic Activation: RAT, LIVER, S-9, AROCLOR 1254 (30%), Method: PREINCUBATION): inactive; negative
- mutagenic call (Test System: AMES SALMONELLA TYPHIMURIUM, Strain/Indicator: TA1537 R+, Metabolic Activation: NONE, Method: STANDARD PLATE): active; positive
- mutagenic call (Test System: AMES SALMONELLA TYPHIMURIUM, Strain/Indicator: TA1537 R+, Metabolic Activation: RAT, LIVER, S-9, AROCLOR 1254, Method: STANDARD PLATE): active; positive
- mutagenic call (Test System: AMES SALMONELLA TYPHIMURIUM, Strain/Indicator: TA1538, Metabolic Activation: HAMSTER, LIVER, S-9, AROCLOR 1254 (30%), Method: PREINCUBATION): active; positive
- mutagenic call (Test System: AMES SALMONELLA TYPHIMURIUM, Strain/Indicator: TA1538, Metabolic Activation: RAT, LIVER, S-9, AROCLOR 1254 (30%), Method: PREINCUBATION): active; positive

SMILES: Brc1ccc(-c2ccc(Br)c(Br)c2)cc1Br
- mutagenic call (Test System: CHINESE HAMSTER V-79, Strain/Indicator: V-79 (HGPRT)/6-THIOGUANINE, Metabolic Activation: NONE): inactive; negative
- mutagenic call (Test System: CHINESE HAMSTER V-79, Strain/Indicator: V-79 (HGPRT)/6-THIOGUANINE, Metabolic Activation: RAT, LIVER, S-9, AROCLOR 1254): inactive; negative

SMILES: Clc1ccc(N=Nc2ccc(Cl)c(Cl)c2)cc1Cl
- mutagenic call [3]: inactive; negative
- mutagenic call (Test System: AMES SALMONELLA TYPHIMURIUM, Strain/Indicator: TA97, Metabolic Activation: RAT, LIVER, S-9, AROCLOR 1254, Method: STANDARD PLATE): inactive; negative
- mutagenic call [1]: inactive; negative
- mutagenic call (Test System: AMES SALMONELLA TYPHIMURIUM, Strain/Indicator: TA98, Metabolic Activation: RAT, LIVER, S-9, AROCLOR 1254, Method: STANDARD PLATE): inactive; negative
- mutagenic call [2]: inactive; negative
- mutagenic call (Test System: AMES SALMONELLA TYPHIMURIUM, Strain/Indicator: TA100, Metabolic Activation: RAT, LIVER, S-9, AROCLOR 1254, Method: STANDARD PLATE): inactive; negative
- mutagenic call (Test System: AMES SALMONELLA TYPHIMURIUM, Strain/Indicator: TA104, Metabolic Activation: NONE, Method: STANDARD PLATE): inactive; negative
- mutagenic call (Test System: AMES SALMONELLA TYPHIMURIUM, Strain/Indicator: TA104, Metabolic Activation: RAT, LIVER, S-9, AROCLOR 1254, Method: STANDARD PLATE): inactive; negative
- mutagenic call (Test System: CHINESE HAMSTER OVARY, Strain/Indicator: CHO-K1-BH4 (HGPRT), Metabolic Activation: NONE): inactive; negative
- mutagenic call (Test System: CHINESE HAMSTER OVARY, Strain/Indicator: CHO-K1-BH4 (HGPRT), Metabolic Activation: RAT, LIVER, S-9, AROCLOR 1254): inactive; negative
- mutagenic call (Test System: UDS RODENT HEPATOCYTES, Strain/Indicator: THY INCORP (NON-S-PHASE), Method: LIQUID SCINTILLATION COUNTING): active; positive
